According to ChEMBL document CHEMBL1201862, “PubChem BioAssay data set” (2004):
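1) Cells in 96-well plates. 2) Compound, 48 h, 5 concentrations. 3) Linear interpolation between surrounding doses. 4) Unreached endpoint = highest concentration. GI50 is the concentration that inhibits growth by half.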 Calls of active or inactive are those of the source. Cut-off read from the data, not from the text of the source: active = GI50 up to about 1.1 µM and inactive = higher. Bridge positions count the residues as written; N and C are the ends. Square brackets hold non-standard residues; d marks the D form. Peptide text beside a SMILES is read from it. * marks the point of attachment. Cbz = O=C(OCc1ccccc1)*; Dab = NCC[CH](N)C(=O)O; Bn = c1ccc(C*)cc1

How the values were obtained:
Assay in all cases: NCI tumour cell line growth inhibition, 48 h
HT-29 = system: HT-29
786-0 = system: 786-0
HCT-15 = system: HCT-15
HOP-62 = system: HOP-62
HCC 2998 = system: HCC 2998
NCI-H522 = system: NCI-H522
CAKI-1 = system: CAKI-1
MCF7 = system: MCF7
KM12 = system: KM12
Malme-3M = system: Malme-3M
T47D = system: T47D
OVCAR-5 = system: OVCAR-5
A549 = system: A549
SF-268 = system: SF-268
LOX IMVI = system: LOX IMVI
SK-MEL-28 = system: SK-MEL-28
PC-3 = system: PC-3
CCRF-CEM = system: CCRF-CEM
BT-549 = system: BT-549
MDA-N = system: MDA-N

Compound | GI50 (HT-29) | GI50 (786-0) | GI50 (HCT-15) [µM] | GI50 (HOP-62) | GI50 (HCC 2998) | GI50 (NCI-H522) | GI50 (CAKI-1) | GI50 (MCF7) | GI50 (KM12) | GI50 (Malme-3M) | GI50 (T47D) | GI50 (OVCAR-5) | GI50 (A549) | GI50 (SF-268) | GI50 (LOX IMVI) | GI50 (SK-MEL-28) | GI50 (PC-3) | GI50 (CCRF-CEM) | GI50 (BT-549) | GI50 (MDA-N)
O/N=C1/COC(C(F)(F)F)(C(F)(F)F)C1 | > 100 µM (inactive) | > 100 µM (inactive) | > 100 | > 100 µM (inactive) | > 100 µM (inactive) | > 100 µM (inactive) | > 100 µM (inactive) | > 100 µM (inactive) | > 100 µM (inactive) | > 100 µM (inactive) | > 100 µM (inactive) | > 100 µM (inactive) | > 100 µM (inactive) | > 100 µM (inactive) | > 100 µM (inactive) | > 100 µM (inactive) | > 100 µM (inactive) | – | – | –
CC1=NN(C(=O)Cc2ccccc2)C(=O)/C1=C\C=C\c1ccccc1 | > 100 µM (inactive) | > 100 µM (inactive) | > 100 | > 100 µM (inactive) | > 100 µM (inactive) | > 100 µM (inactive) | > 100 µM (inactive) | – | > 100 µM (inactive) | > 100 µM (inactive) | – | > 100 µM (inactive) | > 100 µM (inactive) | > 100 µM (inactive) | > 100 µM (inactive) | > 100 µM (inactive) | – | > 100 µM (inactive) | – | –
CC(C)(C)C1CCC2(CC1)c1[nH]c3ccccc3c1C1(CCC(C(C)(C)C)CC1)c1[nH]c3ccccc3c12 (stereo not given) | > 100 µM (inactive) | 7.08 µM (inactive) | > 100 | > 100 µM (inactive) | > 100 µM (inactive) | > 100 µM (inactive) | > 100 µM (inactive) | – | > 100 µM (inactive) | > 100 µM (inactive) | – | > 100 µM (inactive) | > 100 µM (inactive) | > 100 µM (inactive) | > 100 µM (inactive) | > 100 µM (inactive) | – | > 100 µM (inactive) | – | –
C1CCN(C2OC3C(COC3N3CCCCC3)OC2OC2CCO[C@@H]2N2CCCCC2)CC1 (stereo not given in full) | 89.1 µM (inactive) | 34.7 µM (inactive) | 29.5 | 36.2 µM (inactive) | > 100 µM (inactive) | 12.4 µM (inactive) | 30.1 µM (inactive) | – | 78.5 µM (inactive) | 21.1 µM (inactive) | – | > 100 µM (inactive) | 51.3 µM (inactive) | 53.7 µM (inactive) | 75 µM (inactive) | 57.9 µM (inactive) | – | 5.11 µM (inactive) | – | –
O=C1CCCn2c(nc3ccccc32)N1 | > 100 µM (inactive) | > 100 µM (inactive) | > 100 | > 100 µM (inactive) | – | > 100 µM (inactive) | > 100 µM (inactive) | > 100 µM (inactive) | > 100 µM (inactive) | > 100 µM (inactive) | > 100 µM (inactive) | > 100 µM (inactive) | > 100 µM (inactive) | > 100 µM (inactive) | > 100 µM (inactive) | – | > 100 µM (inactive) | > 100 µM (inactive) | > 100 µM (inactive) | –
N#Cc1cccc(/C=N/C23CC4CC(CC(C4)C2)C3)c1 | > 100 µM (inactive) | > 100 µM (inactive) | > 100 | > 100 µM (inactive) | > 100 µM (inactive) | > 100 µM (inactive) | > 100 µM (inactive) | – | > 100 µM (inactive) | > 100 µM (inactive) | – | > 100 µM (inactive) | > 100 µM (inactive) | > 100 µM (inactive) | > 100 µM (inactive) | > 100 µM (inactive) | – | 62.5 µM (inactive) | – | –
COC(=O)C1=Cc2cc(OC)c(O)cc2[C@@H](c2ccc(O)c(OC)c2)[C@@H]1C(=O)OC | > 100 µM (inactive) | > 100 µM (inactive) | > 100 | > 100 µM (inactive) | > 100 µM (inactive) | > 100 µM (inactive) | – | > 100 µM (inactive) | 37.6 µM (inactive) | > 100 µM (inactive) | 60.5 µM (inactive) | > 100 µM (inactive) | > 100 µM (inactive) | > 100 µM (inactive) | > 100 µM (inactive) | > 100 µM (inactive) | > 100 µM (inactive) | > 100 µM (inactive) | – | 36.9 µM (inactive)
CC1CC(c2ccc([N+](=O)[O-])cc2)=Nc2ccccc2S1 (stereo not given) | 13.4 µM (inactive) | 15.3 µM (inactive) | 15.4 | 44.9 µM (inactive) | 19.1 µM (inactive) | 20.3 µM (inactive) | 24.4 µM (inactive) | – | 12.6 µM (inactive) | 35.9 µM (inactive) | – | 23.9 µM (inactive) | 21.9 µM (inactive) | 17.3 µM (inactive) | 6.89 µM (inactive) | 17.9 µM (inactive) | – | 4.32 µM (inactive) | – | –
CC(C)=C1C(=O)C[C@]2(C)C[C@H]3/C(=C(/C)CCC12)CC[C@@]3(C)O (stereo not given in full) | > 50 µM (inactive) | > 50 µM (inactive) | 40.1 | > 50 µM (inactive) | > 50 µM (inactive) | 29 µM (inactive) | > 50 µM (inactive) | > 50 µM (inactive) | 18.2 µM (inactive) | – | 46.9 µM (inactive) | > 50 µM (inactive) | > 50 µM (inactive) | > 50 µM (inactive) | > 50 µM (inactive) | > 50 µM (inactive) | 30.7 µM (inactive) | 20.3 µM (inactive) | > 50 µM (inactive) | –
COC1=CC(=O)C(C2(OC(C)C)OC(=O)C(Cl)=C2Cl)=CC1=O (stereo not given) | > 100 µM (inactive) | 28.9 µM (inactive) | > 100 | > 100 µM (inactive) | > 100 µM (inactive) | 25.8 µM (inactive) | > 100 µM (inactive) | > 100 µM (inactive) | > 100 µM (inactive) | > 100 µM (inactive) | > 100 µM (inactive) | > 100 µM (inactive) | > 100 µM (inactive) | > 100 µM (inactive) | 64.1 µM (inactive) | > 100 µM (inactive) | > 100 µM (inactive) | 82.4 µM (inactive) | – | 49.1 µM (inactive)
COc1ccc2c([nH]c3c(O)c(-c4c(C)cc5c([nH]c6c(CC=C(C)C)c(OC)ccc65)c4O)c(C)cc32)c1CC=C(C)C [BISMURRAYAFOLINE B] | > 100 µM (inactive) | > 100 µM (inactive) | > 100 | > 100 µM (inactive) | > 100 µM (inactive) | > 100 µM (inactive) | > 100 µM (inactive) | – | > 100 µM (inactive) | > 100 µM (inactive) | – | > 100 µM (inactive) | > 100 µM (inactive) | > 100 µM (inactive) | > 100 µM (inactive) | > 100 µM (inactive) | – | > 100 µM (inactive) | – | –
Cc1ccccc1C1CC(=O)CC(c2ccccc2C)C12C(=O)NC(=O)NC2=O (stereo not given) | > 100 µM (inactive) | > 100 µM (inactive) | > 100 | > 100 µM (inactive) | > 100 µM (inactive) | > 75.3 µM (inactive) | > 100 µM (inactive) | > 73.6 µM (inactive) | > 100 µM (inactive) | > 100 µM (inactive) | > 100 µM (inactive) | > 100 µM (inactive) | > 100 µM (inactive) | > 100 µM (inactive) | > 100 µM (inactive) | > 100 µM (inactive) | > 100 µM (inactive) | > 65.3 µM (inactive) | > 100 µM (inactive) | –
O=C1C2Cc3ccccc3CN2C(=O)N1CN1CCN(CN2C(=O)C3Cc4ccccc4CN3C2=O)CC1 (stereo not given) | > 100 µM (inactive) | > 100 µM (inactive) | > 100 | > 100 µM (inactive) | > 100 µM (inactive) | > 100 µM (inactive) | > 100 µM (inactive) | – | > 100 µM (inactive) | > 100 µM (inactive) | – | > 100 µM (inactive) | > 100 µM (inactive) | > 100 µM (inactive) | > 100 µM (inactive) | > 100 µM (inactive) | – | > 100 µM (inactive) | – | –
CC(C)CC1NC(=O)C(Cc2ccccc2)NC(=O)C(Cc2ccccc2)NC(=O)C(NC(=O)C(Cc2ccc(OCc3ccccc3)cc2)NC(=O)OCc2ccccc2)CCNC1=O (stereo not given) (Cbz-Y(Bn)[Dab]FFL; lactam 2-C; configuration not given here) | > 100 µM (inactive) | 41.1 µM (inactive) | 41.3 | > 100 µM (inactive) | > 100 µM (inactive) | 23 µM (inactive) | > 100 µM (inactive) | 38.8 µM (inactive) | 64.7 µM (inactive) | 74.3 µM (inactive) | 20.4 µM (inactive) | > 100 µM (inactive) | – | > 100 µM (inactive) | > 100 µM (inactive) | > 100 µM (inactive) | 68.2 µM (inactive) | 33.7 µM (inactive) | – | 36.1 µM (inactive)
CCOP(=O)(OCC)/C(C#N)=C/c1ccccn1 | > 100 µM (inactive) | > 100 µM (inactive) | > 100 | > 100 µM (inactive) | > 100 µM (inactive) | > 100 µM (inactive) | > 100 µM (inactive) | > 100 µM (inactive) | > 100 µM (inactive) | > 100 µM (inactive) | > 100 µM (inactive) | > 100 µM (inactive) | > 100 µM (inactive) | > 100 µM (inactive) | > 100 µM (inactive) | > 100 µM (inactive) | – | > 100 µM (inactive) | – | > 100 µM (inactive)
CS(=O)(=O)c1ccc(C(=O)O[C@@H]2C(=O)N3CC[C@H]4OC(O)[C@@H]2[C@H]43)cc1 (stereo not given in full) | > 100 µM (inactive) | 60.7 µM (inactive) | > 100 | > 100 µM (inactive) | > 100 µM (inactive) | – | > 100 µM (inactive) | > 100 µM (inactive) | > 100 µM (inactive) | – | > 100 µM (inactive) | > 100 µM (inactive) | > 100 µM (inactive) | > 100 µM (inactive) | > 100 µM (inactive) | > 100 µM (inactive) | > 100 µM (inactive) | – | > 100 µM (inactive) | –
